Data published in patent publication US8198462B2, “Dendritic photoactive compound comprising oxime ester and method for preparing the same” (LG Chem, Ltd., priority 2007, dated 2012).

Assay: Solubility of the photoinitiator in frequently used organic solvents
Format: physicochemical
Settings: for Solubility in 3-MBA: solvent 3-methoxybutyl acetate (MBA); for Solubility in CH: solvent cyclohexanone (CH); for Solubility in DPM: solvent dipropylene glycol methyl ether (DPM); for Solubility in EEP: solvent ethyl-3-ethoxy propionate (EEP); for Solubility in PGMEA: solvent propylene glycol methyl ether acetate (PGMEA)
Procedure: For the comparison of the solubility of the compound that comprises oxime ester, in conjunction with Irgacure OXE-02 (Comparative Example 1) of Ciba Specialty Chemical, the solubilities of the compounds of Examples were measured in respects to the solvents that were frequently used, such as propylene glycol methyl ether acetate (PGMEA), dipropylene glycol methyl ether (DPM), 3-methoxybutyl acetate (MBA), ethyl-3-ethoxy propionate (EEP), and cyclohexanone (CH). The solubility was measured on the basis of how many grams of the photoinitiator were dissolved in 100 g of the solvent, and the results are described in the following Table 1.

SMILES | Solubility in 3-MBA | Solubility in CH | Solubility in DPM | Solubility in EEP | Solubility in PGMEA
CCn1c2ccc(/C(CC(c3cccs3)N(OC(C)=O)C(C)=O)=N/OC(C)=O)cc2c2cc(/C(CC(c3cccs3)N(OC(C)=O)C(C)=O)=N/OC(C)=O)ccc21 (stereo not drawn) [Example 4] | 30 grams in 100 g of the solvent | 100 or more grams in 100 g of the solvent | 25 grams in 100 g of the solvent | 30 grams in 100 g of the solvent | 100 or more grams in 100 g of the solvent
CCn1c2ccc(/C(CC(c3ccc(SC)cc3)N(OC(C)=O)C(C)=O)=N/OC(C)=O)cc2c2cc(/C(CC(c3ccc(SC)cc3)N(OC(C)=O)C(C)=O)=N/OC(C)=O)ccc21 (stereo not drawn) [Example 5] | 50 or more grams in 100 g of the solvent | 100 or more grams in 100 g of the solvent | 50 or more grams in 100 g of the solvent | 50 or more grams in 100 g of the solvent | 100 or more grams in 100 g of the solvent
CCn1c2ccc(/C(CC(c3ccccc3)N(OC(C)=O)C(C)=O)=N/OC(C)=O)cc2c2cc(/C(CC(c3ccccc3)N(OC(C)=O)C(C)=O)=N/OC(C)=O)ccc21 (stereo not drawn) [Example 3] | 50 or more grams in 100 g of the solvent | 100 or more grams in 100 g of the solvent | 50 or more grams in 100 g of the solvent | 50 or more grams in 100 g of the solvent | 100 or more grams in 100 g of the solvent
CCn1c2ccc(C(=O)c3ccccc3C)cc2c2cc(/C(C)=N/OC(C)=O)ccc21 [Comparative Example 1, reference compound] | 10 grams in 100 g of the solvent | 40 grams in 100 g of the solvent | 5 grams in 100 g of the solvent | 10 grams in 100 g of the solvent | 12 grams in 100 g of the solvent
CSc1ccc(C(C/C(=N\OC(C)=O)c2ccc(/C(CC(c3ccc(SC)cc3)N(OC(C)=O)C(C)=O)=N/OC(C)=O)cc2)N(OC(C)=O)C(C)=O)cc1 (stereo not drawn) [Example 2] | 50 or more grams in 100 g of the solvent | 100 or more grams in 100 g of the solvent | 50 or more grams in 100 g of the solvent | 50 or more grams in 100 g of the solvent | 100 or more grams in 100 g of the solvent
CC(=O)O/N=C(\CC(c1ccc(C(C/C(=N\OC(C)=O)c2ccccc2)N(OC(C)=O)C(C)=O)cc1)N(OC(C)=O)C(C)=O)c1ccccc1 (stereo not drawn) [Example 1] | 50 or more grams in 100 g of the solvent | 100 or more grams in 100 g of the solvent | 50 or more grams in 100 g of the solvent | 50 or more grams in 100 g of the solvent | 100 or more grams in 100 g of the solvent
